Measurements: patent US9867811B2, “Method of treating atherosclerosis in high triglyceride subjects” (NOVARTIS AG, priority 2011, dated 2018)
Like-named read-outs stand apart in the source and are kept apart here.

Key:
[1] = target: T1, CETP (Homo sapiens, UniProt P11597); assay: In vitro CETP activity assay in human plasma (serum pools of differing triglyceride level); format: biochemical; settings: human serum pool
T1 construct: Human serum samples were obtained from the Novartis Institutes for BioMedical Research donor program; tissue Novartis donor program; Bioreclamation (Westbury, N.Y.); Uniglobe (Reseda, Calif.); host or cells: pooled human donor serum
T1 sequence (P11597 18-493): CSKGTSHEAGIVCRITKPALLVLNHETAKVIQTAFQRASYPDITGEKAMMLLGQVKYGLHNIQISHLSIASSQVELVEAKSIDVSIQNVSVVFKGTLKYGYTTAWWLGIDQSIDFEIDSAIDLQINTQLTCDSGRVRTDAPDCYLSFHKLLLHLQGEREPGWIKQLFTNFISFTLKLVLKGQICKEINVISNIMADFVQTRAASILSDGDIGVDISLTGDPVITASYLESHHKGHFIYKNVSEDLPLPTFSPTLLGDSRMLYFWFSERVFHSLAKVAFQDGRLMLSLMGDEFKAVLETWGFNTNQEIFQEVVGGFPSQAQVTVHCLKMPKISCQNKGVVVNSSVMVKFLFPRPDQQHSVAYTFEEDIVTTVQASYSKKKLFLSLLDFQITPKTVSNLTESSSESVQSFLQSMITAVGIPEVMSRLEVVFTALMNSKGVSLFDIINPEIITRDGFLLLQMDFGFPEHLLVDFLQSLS
Protocol: Pro-apoA-1 containing microemulsion as a donor particle was prepared following previous report (J. Biol. Chem., 280:14918-22). Glyceryl trioleate (500 ug, Sigma-Aldrich, Cat. No. T7140), 3-sn-phosphatidylcholine (4680 ug, Sigma, Cat. No. P2772), and cholesteryl BODIPY FL 012 (2 mg, Invitrogen, CA, Cat. No. C-3927MP) were dissolved in 1.5 mL of chloroform. The solution was evaporated, and residual solvent was removed under vacuum for more than 1 hr at room temperature. The dried lipid mixture was dissolved in 7 ml of the assay buffer (50 mM Tris-HCl (pH 7.4) containing 150 mM NaCl and 2 mM EDTA) and sonicated in water bath for 1 hr. The solution was split into two tubes of 3.5 ml each. Each tube was sonicated at 50° C. with a microtip (MICROSON™ ULTRASONIC CELL DISRUPTOR, Misonix, Farmingdale, N.Y.) at output power 006 for 10 min (every other 25 seconds). The solution was cooled to 40° C. and 400 ug of pro-apoA-1 was added to each tube (total volume of 4 mL). Then, the solution was sonicated at output power 004 for 20 min (every other 30 seconds). Final Concentration: Glyceryl Tiroleate: 62.5 ug/ml, PC: 585 ug/ml, Bodipy CE: 250 ug/ml, Pro-apoA-1: 100 ug/ml. Centrifuge solution at 5200×g for 5 minutes and store the supernatant at 4′C.
Human serum samples were obtained from the Novartis Institutes for BioMedical Research donor program (normal triglyceride samples) or purchased from Bioreclamation (Westbury, N.Y.) or Uniglobe (Reseda, Calif.). General requirements for human serum donors included: male gender, 20-55 years of age, not currently on a lipid altering medication, non-fasting at time of blood collection, and a total cholesterol level between 200-300 mg/dL. Donor samples were selected primarily on the basis of serum triglyceride level, using the following classifications: normal triglycerides (<150 mg/dL); high triglycerides (300-500 mg/dL); and very high triglycerides (750-1200 mg/dL). A total of 4 individual serum samples from each classification were used in these experiments. For each of the 3 triglyceride classifications, two serum sample pools were prepared. The mean plasma triglyceride concentrations (mg/dL) for the pools were: Normal: 101.35; High: 347.5; Very high 1, 868.45; Very high 2, 1269.35.
Donor solution is prepared by a dilution of donor microemulsion with assay buffer (1.7 ul donor+8.3 ul Buffer). Human serum (25 μL), assay buffer (14 μL) and 50× test compound dissolved in 100% dimethylsulfoxide (1 μL) are added to each well of 384 well black, clear-bottom plate (NUNC. Thermo Fisher #242764). The reaction is started by the addition of donor solution (10 μL) into each well. Fluorescence intensities are measured every 10 min at 37° C. with excitation wave length of 485 nm and emission wavelength of 515 nm over an 80 minute period, using a SpectraMax M5 from Molecular Devices (Sunnyvale, Calif.). The CETP activity (RFU/min) is defined as the change of fluorescence intensity from 40 to 70 min. Percent CETP inhibition is calculated as follows: ((100% Act−Wellcmpnd)/100% Act))*100. IC50 values were calculated with GraphPad Prism 5 software.

[2] = test system: CETP; assay: Ex vivo CETP activity in plasma of hamsters (saline or Triton WR-1339 treated); settings: hamster
Protocol: Nine- to ten-week-old, male golden Syrian hamsters were purchased from Japan SLC Inc. (Shizuoka, Japan). Animals underwent a more than 1-week acclimation period under the following conditions: 8:00/20:00 light/dark cycle, room temperature 23±2° C. […] During this time, animals received filtered (0.5 μm) water and a standard chow diet ad libitum.
Whole blood samples were collected using a heparin-washed syringe (Heparin sodium injection “Ajinomoto”; Ajinomoto, Tokyo, Japan) from the abdominal vein by venipuncture under isoflurane (Abbott Japan Co. Ltd.) inhalant anesthesia. After centrifugation at 15,000 rpm for 10 min at 4° C., heparinized plasma was prepared and stored at −80° C. until use.
CETP activity (RFU/min) was defined as the change in fluorescence intensity from 30 to 90 min.
The effect of an acute increase of plasma triglycerides in vivo (acute increase in triglyceride-rich particles) on the ability of Torcetrapib to alter plasma CETP activity, triglyceride and total cholesterol levels was investigated. Torcetrapib at doses of 3, 10 or 30 mg/kg or vehicle was administered once by gavage to hamsters fed a standard chow diet.
Compound or vehicle was administered once by gavage to hamsters fed a standard chow diet.

[3] = test system: CETP; assay: Ex vivo plasma CETP activity assay with exogenously added compound (maximum inhibition); format: biochemical; settings: 10 μM, hamster plasma (80% plasma)
Protocol: Plasma CETP activity ex vivo was determined as followed: 50 μL of hamster plasma (final 80% plasma) was mixed with 10 μL of donor solution diluted with assay buffer composed of 50 mM Tris-HCl (pH7.4) containing 150 mM NaCl and 2 mM EDTA in a 96-well half area black flat bottom plate (Cat. No. 3686, Corning, Corning, N.Y.). Fluorescence intensity was measured every 15 min at an excitation wave length of 485 nm and an emission wavelength of 535 nm for 120 min at 37° C. using ARVO SX+L (PerkinElmer, Wellesley, Mass.). CETP activity (RFU/min) was defined as the change in fluorescence intensity from 30 to 90 min.

[4] = TG = 101.35 mg/dL (normal), read-out: CETP IC50 (nM) TG = 101.35 mg/dL
[5] = TG = 374.5 mg/dL (high), read-out: CETP IC50 (nM) TG = 374.5 mg/dL
[6] = TG = 868.45 mg/dL (very high 1), read-out: CETP IC50 (nM) TG = 868.45 mg/dL
[7] = TG = 1269.35 mg/dL (very high 2), read-out: CETP IC50 (nM) TG = 1269.35 mg/dL

| IC50 [1, 4] [nM] | IC50 [1, 5] [nM] | IC50 [1, 6] [nM] | IC50 [1, 7] [nM] | SMILES | Inhibition of CETP activity, lower dose group, Triton WR-1339 group ([2]; oral gavage: Torcetrapib 5 mg/kg, Anacetrapib 1.5 mg/kg, Example 49 1.5 mg/kg, Example 8 0.75 mg/kg, Triton WR-1339 100 mg/kg i.v., not significant vs vehicle) [%] | Inhibition of CETP activity, lower dose group, saline group ([2]; oral gavage: Torcetrapib 5 mg/kg, Anacetrapib 1.5 mg/kg, Example 49 1.5 mg/kg, Example 8 0.75 mg/kg, saline i.v.) [%] | Inhibition of CETP activity, higher dose group, Triton WR-1339 group ([2]; oral gavage: Torcetrapib 10 mg/kg, Anacetrapib 3 mg/kg, Example 49 3 mg/kg, Example 8 1.5 mg/kg, Triton WR-1339 100 mg/kg i.v.) [%] | Inhibition of CETP activity, higher dose group, saline group ([2]; oral gavage: Torcetrapib 10 mg/kg, Anacetrapib 3 mg/kg, Example 49 3 mg/kg, Example 8 1.5 mg/kg, saline i.v.) [%] | Maximum inhibition of CETP activity, compound exogenously added, Triton WR-1339 group ([3]; Triton WR-1339 group) [%] | Maximum inhibition of CETP activity, compound exogenously added, saline group ([3]; saline group) [%] |
| --- | --- | --- | --- | --- | --- | --- | --- | --- | --- | --- |
| 114 | 62.7 | 40.2 | 29.6 | CC[C@@H]1C[C@H](N(Cc2cc(C(F)(F)F)cc(C(F)(F)F)c2)c2ncc(-c3cnn(C)c3)cn2)C[C@H](CC)N1C(=O)O[C@H]1C[C@H](C(=O)O)C1 [Example 17] | – | – | – | – | – | – |
| 71.9 | 116 | – | 540 | CC[C@@H]1C[C@H](N(Cc2cc(C(F)(F)F)cc(C(F)(F)F)c2)c2ncc(-c3cnn(C)c3)cn2)C[C@H](CC)N1C(=O)O[C@H]1CC[C@H](C(=O)O)CC1 [Example 19] | – | – | – | – | – | – |
| 22.1 | 42.7 | 37.1 | 46.4 | Cn1nnc(N(Cc2cc(C(F)(F)F)cc(C(F)(F)F)c2)Cc2cc3cc(F)c(F)cc3nc2N2CCC[C@@H]2[C@H]2CC[C@H](C(=O)O)CC2)n1 [Example 49] | 26 | 63 | 38 | 77 | ~100 | ~100 |
| 48.7 | 49.8 | 54.4 | 92.3 | Cc1cc(C)c2c(c1)[C@@H](N(Cc1cc(C(F)(F)F)cc(C(F)(F)F)c1)c1nnn(C)n1)CCCN2C[C@H]1CC[C@H](C(=O)O)CC1 [Example 53] | – | – | – | – | – | – |
| 301 | 155 | 91.7 | 29.4 | CCN(C[C@H]1CC[C@H](CC(=O)O)CC1)c1ccc(C(F)(F)F)cc1CN(c1ncc(OCCS(C)(=O)=O)cn1)[C@@H](C)c1cc(C(F)(F)F)cc(C(F)(F)F)c1 [Example 57A] | – | – | – | – | – | – |
| 669 | 1300 | 2300 | 2700 | CCN(C[C@H]1CC[C@H](CC(=O)O)CC1)c1ccc(C(F)(F)F)cc1CN(c1ncc(OCCS(C)(=O)=O)cn1)[C@H](C)c1cc(C(F)(F)F)cc(C(F)(F)F)c1 [Example 57B] | – | – | – | – | – | – |
| 82.2 | 151 | 280 | 372 | CCN(C[C@H]1CC[C@H](CC(=O)O)CC1)c1cc(C)c(C(F)(F)F)cc1CN(Cc1cc(C(F)(F)F)cc(C(F)(F)F)c1)c1nnn(C)n1 [Example 58] | – | – | – | – | – | – |
